Counter-ions that a name gives are not always drawn.

Assay [1] has as its target T1, Prostate-specific membrane antigen (PSMA) (Homo sapiens, UniProt Q04609).
T1 construct: gene FOLH1; extracellular part of human PSMA; amino acids 44–750
Briefly: radioenzymatic assay with 3H-NAAG, purified recombinant PSMA. Type of assay: biochemical.

The target in assay [2] is T1, Prostate-specific membrane antigen (PSMA). Put plainly: X-ray crystal structure ([…] Å); IC50 from radioenzymatic 3H-NAAG assay with purified enzyme. Type of assay: biochemical.

T1 sequence (Q04609 44-750): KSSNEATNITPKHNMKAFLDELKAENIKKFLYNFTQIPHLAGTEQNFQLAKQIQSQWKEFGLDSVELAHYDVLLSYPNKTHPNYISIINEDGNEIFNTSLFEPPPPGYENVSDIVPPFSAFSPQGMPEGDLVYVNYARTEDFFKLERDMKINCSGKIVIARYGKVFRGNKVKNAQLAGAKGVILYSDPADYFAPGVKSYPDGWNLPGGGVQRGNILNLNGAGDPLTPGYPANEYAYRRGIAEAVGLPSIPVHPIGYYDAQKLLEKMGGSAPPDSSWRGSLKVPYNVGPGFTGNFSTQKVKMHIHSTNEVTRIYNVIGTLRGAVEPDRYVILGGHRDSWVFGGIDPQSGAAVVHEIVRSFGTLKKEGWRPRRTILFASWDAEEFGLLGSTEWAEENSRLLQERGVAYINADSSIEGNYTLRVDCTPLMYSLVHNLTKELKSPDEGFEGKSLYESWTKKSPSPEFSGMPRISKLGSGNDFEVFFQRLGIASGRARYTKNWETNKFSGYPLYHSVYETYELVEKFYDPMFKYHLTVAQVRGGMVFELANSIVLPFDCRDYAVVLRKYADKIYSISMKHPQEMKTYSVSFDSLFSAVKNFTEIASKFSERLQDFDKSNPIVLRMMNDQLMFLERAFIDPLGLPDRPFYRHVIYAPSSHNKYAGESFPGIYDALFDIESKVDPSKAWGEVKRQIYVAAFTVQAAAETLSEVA

As to `O=C(O)CC[C@H](NS(=O)(=O)N[C@@H](CC(=O)O)C(=O)O)C(=O)O` [compound 3, (S)-2-((N-((S)-1,2-Dicarboxyethyl)sulfamoyl)amino)pentanedioic Acid Tetrasodium Salt], the 50% inhibitory concentration (IC50) in assay [1] is 103 µM.
Still for that read-out and setting: the same measure for `O=C(O)CC[C@H](NS(=O)(=O)N[C@@H](CCC(=O)O)C(=O)O)C(=O)O` [compound 4, (2S,2′S)-2,2′-(Sulfonylbis(azanediyl))dipentanedioic Acid]: 165 µM.
In the case of `NS(=O)(=O)N[C@@H](CCC(=O)O)C(=O)O` [compound 9, monosubstituted glutamyl sulfamide 9], the midpoint of inhibition in assay [2], the IC50, lay at 1.2 µM.

(Values after publication PMC10865363, “Structural, Biochemical, and Computational Characterization of Sulfamides as Bimetallic Peptidase Inhibitors” (Journal of Chemical Information and Modeling, 2024).)
